Experimental data: patent publication US20240092758A1, “IMIDAZOLO INDAZOLE COMPOUNDS AS JAK INHIBITORS” (Theravance Biopharma R&D IP, LLC, priority 2021, published 2024)

Tests used:
JAK2 = JAK2 (Homo sapiens (Human), UniProt O60674); experiment: Biochemical JAK kinase assay (LanthaScreen), JAK2; settings: for Ki: read-out: JAK2 pKi (converted)
In short: (§1)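 LanthaScreen format: phospho-STAT1 (pTyr701) detected with 2 nM Tb antibody after 10 mM EDTA quench. Kinase step used Km-level ATP and 200 nM STAT1 peptide, 1 h at ambient after 1 h pre-incubation. Inhibition fitted to IC50, reported as pKi.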

[1] = system: IL-13 induced STAT6 phosphorylation in BEAS-2B human lung epithelial cells; experiment: Cellular JAKI potency assay (BEAS-2B); type: cell-based; settings: Homo sapiens, BEAS-2B, BEAS-2B cells, read-out: BEAS2B pIC50 (converted)
In short: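 AlphaLISA SureFire detection of Tyr641 pSTAT6 in lysates gave IC50s (4-parameter fit, expressed as pIC50). Cells: human BEAS-2B, exposed 1 h at 37 °C to compound dose series at 0.1% DMSO, then 30 min to IL-13 added at 80 ng/mL in HEPES-buffered HBSS with BSA.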

JAK1 = JAK1 (Homo sapiens (Human), UniProt P23458); experiment: Biochemical JAK kinase assay (LanthaScreen), JAK1; settings: for Ki: read-out: JAK1 pKi (converted)
Sequence of JAK1 (P23458 whole entry): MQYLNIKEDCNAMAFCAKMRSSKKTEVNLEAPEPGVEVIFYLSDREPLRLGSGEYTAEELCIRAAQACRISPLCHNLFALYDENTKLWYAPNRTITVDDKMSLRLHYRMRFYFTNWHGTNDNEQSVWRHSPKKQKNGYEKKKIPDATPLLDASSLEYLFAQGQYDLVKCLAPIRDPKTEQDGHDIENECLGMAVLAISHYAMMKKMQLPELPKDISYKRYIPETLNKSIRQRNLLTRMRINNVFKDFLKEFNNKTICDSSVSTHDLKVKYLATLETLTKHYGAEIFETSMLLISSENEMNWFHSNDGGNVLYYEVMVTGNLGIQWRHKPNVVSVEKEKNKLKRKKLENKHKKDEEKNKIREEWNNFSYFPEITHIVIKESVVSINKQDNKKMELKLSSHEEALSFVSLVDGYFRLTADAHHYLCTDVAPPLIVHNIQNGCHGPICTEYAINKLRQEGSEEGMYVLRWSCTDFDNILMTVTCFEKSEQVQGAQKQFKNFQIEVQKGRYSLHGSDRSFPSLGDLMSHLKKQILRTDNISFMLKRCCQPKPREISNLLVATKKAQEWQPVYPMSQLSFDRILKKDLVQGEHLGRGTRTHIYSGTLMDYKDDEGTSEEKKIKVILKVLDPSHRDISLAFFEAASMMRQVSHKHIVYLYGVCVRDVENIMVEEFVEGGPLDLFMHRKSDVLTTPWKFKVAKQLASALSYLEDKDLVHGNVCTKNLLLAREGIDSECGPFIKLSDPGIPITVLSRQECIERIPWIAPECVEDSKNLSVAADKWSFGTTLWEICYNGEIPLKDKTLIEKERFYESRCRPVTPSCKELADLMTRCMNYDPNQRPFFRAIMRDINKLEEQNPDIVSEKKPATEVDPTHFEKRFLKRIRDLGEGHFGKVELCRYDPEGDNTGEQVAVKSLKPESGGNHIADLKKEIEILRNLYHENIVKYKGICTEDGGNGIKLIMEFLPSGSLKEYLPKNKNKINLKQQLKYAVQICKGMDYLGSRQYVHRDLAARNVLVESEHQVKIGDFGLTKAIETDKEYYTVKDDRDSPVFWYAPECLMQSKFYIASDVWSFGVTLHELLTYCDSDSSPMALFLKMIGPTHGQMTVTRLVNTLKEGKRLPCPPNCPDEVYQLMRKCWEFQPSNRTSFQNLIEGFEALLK
In short: as §1

Sequence of JAK2 (O60674 whole entry): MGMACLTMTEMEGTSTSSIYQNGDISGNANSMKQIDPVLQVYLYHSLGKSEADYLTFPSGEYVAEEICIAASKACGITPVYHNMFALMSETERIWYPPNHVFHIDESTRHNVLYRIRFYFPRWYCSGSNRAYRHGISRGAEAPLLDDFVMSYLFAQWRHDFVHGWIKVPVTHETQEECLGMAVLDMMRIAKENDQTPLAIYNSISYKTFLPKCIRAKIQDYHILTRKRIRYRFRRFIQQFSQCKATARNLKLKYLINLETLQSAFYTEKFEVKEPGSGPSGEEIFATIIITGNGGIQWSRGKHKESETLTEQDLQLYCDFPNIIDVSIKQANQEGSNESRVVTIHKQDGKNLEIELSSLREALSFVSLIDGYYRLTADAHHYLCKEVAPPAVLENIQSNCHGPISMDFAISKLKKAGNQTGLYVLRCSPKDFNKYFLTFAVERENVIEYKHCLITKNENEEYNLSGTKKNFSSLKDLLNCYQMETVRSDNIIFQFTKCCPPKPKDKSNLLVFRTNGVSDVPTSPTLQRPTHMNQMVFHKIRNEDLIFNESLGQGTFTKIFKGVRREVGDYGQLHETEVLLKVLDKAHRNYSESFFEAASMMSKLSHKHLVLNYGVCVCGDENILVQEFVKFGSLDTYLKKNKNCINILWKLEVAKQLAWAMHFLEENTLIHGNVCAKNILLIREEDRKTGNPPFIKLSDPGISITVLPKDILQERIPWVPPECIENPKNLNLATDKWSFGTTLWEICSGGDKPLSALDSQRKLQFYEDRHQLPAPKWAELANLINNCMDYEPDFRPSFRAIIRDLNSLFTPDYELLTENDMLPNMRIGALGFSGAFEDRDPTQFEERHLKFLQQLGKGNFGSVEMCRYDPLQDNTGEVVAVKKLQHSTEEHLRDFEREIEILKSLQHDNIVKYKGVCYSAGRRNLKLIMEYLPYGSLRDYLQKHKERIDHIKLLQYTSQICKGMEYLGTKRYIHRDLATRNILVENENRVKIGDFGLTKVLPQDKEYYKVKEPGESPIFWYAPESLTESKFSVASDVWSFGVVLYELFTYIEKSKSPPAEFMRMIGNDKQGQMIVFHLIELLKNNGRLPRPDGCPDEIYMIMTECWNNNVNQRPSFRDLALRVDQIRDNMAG

CCc1cc(O)ccc1-c1ccc2c(-c3nc(C4=CCNC(C)(C)C4)c[nH]3)n[nH]c2c1F [Example 377]
Ki (JAK2): 0.1 to 1 nM
IC50 [1]: 31.6 to 100 nM
Ki (JAK1): 0.1 to 1 nM

CCc1cc(O)ccc1-c1ccc2c(-c3nc(C4=CC[C@H](C)N([C@H]5C[C@H](O)C5)C4)c[nH]3)n[nH]c2c1F [Example 337]
Ki (JAK2): 0.1 to 1 nM
IC50 [1]: 10 to 31.6 nM
Ki (JAK1): 0.1 to 1 nM

CCc1cc(O)ccc1-c1ccc2c(-c3nc(C4=C[C@@H](C)NC4)c[nH]3)n[nH]c2c1F [Example 292]
Ki (JAK2): 0.1 to 1 nM
IC50 [1]: 3.16 to 10 nM
Ki (JAK1): 0.1 to 1 nM

CCc1cc(O)ccc1-c1ccc2c(-c3nc(C4=CCCN(Cc5ccccc5)C4)c[nH]3)n[nH]c2c1 [Example 138]
Ki (JAK2): 0.1 to 1 nM
IC50 [1]: 100 to 316 nM
Ki (JAK1): 0.1 to 1 nM

CCc1cc(O)ccc1-c1ccc2c(-c3nc(C4=C[C@H](CC#N)NC4)c[nH]3)n[nH]c2c1 [Example 243]
JAK2 pKi (JAK2): A (A represents a pKi value ≥10 (Ki≤0.1 nM))
IC50 [1]: 3.16 to 10 nM
JAK1 pKi (JAK1): A (A represents a pKi value ≥10 (Ki≤0.1 nM))

CCc1cc(O)ccc1-c1ccc2c(-c3nc(C4=CCN([C@H]5CC[C@H](O)CC5)C4)c[nH]3)n[nH]c2c1 [Example 128]
JAK2 pKi (JAK2): A (A represents a pKi value ≥10 (Ki≤0.1 nM))
IC50 [1]: 3.16 to 10 nM
JAK1 pKi (JAK1): A (A represents a pKi value ≥10 (Ki≤0.1 nM))

CCc1cc(O)ccc1-c1ccc2c(-c3nc(C4=CC[C@H](C)N(C[C@H](C)CO)C4)c[nH]3)n[nH]c2c1F [Example 261]
Ki (JAK2): 0.1 to 1 nM
IC50 [1]: 10 to 31.6 nM
Ki (JAK1): 0.1 to 1 nM

CCc1cc(O)ccc1-c1ccc2c(-c3nc(C4=CCN(C(=O)OC)CC4)c[nH]3)n[nH]c2c1F [Example 156]
Ki (JAK2): 0.1 to 1 nM
IC50 [1]: 31.6 to 100 nM
Ki (JAK1): 1 to 10 nM

CCc1cc(O)ccc1-c1ccc2c(-c3nc(C4=CCN(CCCNS(C)(=O)=O)CC4)c[nH]3)n[nH]c2c1 [Example 103]
JAK2 pKi (JAK2): A (A represents a pKi value ≥10 (Ki≤0.1 nM))
IC50 [1]: 10 to 31.6 nM
JAK1 pKi (JAK1): A (A represents a pKi value ≥10 (Ki≤0.1 nM))

CCc1cc(O)ccc1-c1ccc2c(-c3nc(C4=C[C@@H](CC#N)NC4)c[nH]3)n[nH]c2c1F [Example 249]
Ki (JAK2): 0.1 to 1 nM
IC50 [1]: 10 to 31.6 nM
Ki (JAK1): 0.1 to 1 nM

CCc1cc(O)ccc1-c1ccc2c(-c3nc(C4=CC[C@H](C)N(CCCOC)C4)c[nH]3)n[nH]c2c1F [Example 266]
Ki (JAK2): 0.1 to 1 nM
IC50 [1]: 10 to 31.6 nM
Ki (JAK1): 0.1 to 1 nM

CCc1cc(O)ccc1-c1ccc2c(-c3nc(C4=C[C@H](C(=O)OC)NC4)c[nH]3)n[nH]c2c1F [Example 250]
Ki (JAK2): 0.1 to 1 nM
IC50 [1]: 31.6 to 100 nM
Ki (JAK1): 0.1 to 1 nM

CCc1cc(O)ccc1-c1ccc2c(-c3nc(C4=CCN(C(C)=O)CC4)c[nH]3)n[nH]c2c1F [Example 154]
Ki (JAK2): 0.1 to 1 nM
IC50 [1]: 10 to 31.6 nM
Ki (JAK1): 0.1 to 1 nM

CCc1cc(O)ccc1-c1ccc2c(-c3nc(C4=CCN(C(=O)CNC)C4)c[nH]3)n[nH]c2c1F [Example 349]
JAK2 pKi (JAK2): A (A represents a pKi value ≥10 (Ki≤0.1 nM))
IC50 [1]: 31.6 to 100 nM
Ki (JAK1): 0.1 to 1 nM

CCc1cc(O)ccc1-c1ccc2c(-c3nc(C4=CCN(C5CC(O)C5)CC4)c[nH]3)n[nH]c2c1F (stereo not drawn) [Example 40]
JAK2 pKi (JAK2): A (A represents a pKi value ≥10 (Ki≤0.1 nM))
IC50 [1]: 10 to 31.6 nM
JAK1 pKi (JAK1): A (A represents a pKi value ≥10 (Ki≤0.1 nM))

CCc1cc(O)ccc1-c1ccc2c(-c3nc(C4=CCN(CCCOC)CC4)c[nH]3)n[nH]c2c1F [Example 59]
Ki (JAK2): 0.1 to 1 nM
IC50 [1]: 10 to 31.6 nM
Ki (JAK1): 0.1 to 1 nM

Oc1ccc(-c2ccc3c(-c4nc(C5=CCNCC5)c[nH]4)n[nH]c3c2)c(CC(F)(F)F)c1 [Example 369]
Ki (JAK2): 0.1 to 1 nM
IC50 [1]: 31.6 to 100 nM
Ki (JAK1): 0.1 to 1 nM

CCc1cc(O)ccc1-c1ccc2c(-c3nc(C4=C[C@H](CO)N(CCCO)C4)c[nH]3)n[nH]c2c1F [Example 264]
JAK2 pKi (JAK2): A (A represents a pKi value ≥10 (Ki≤0.1 nM))
IC50 [1]: 10 to 31.6 nM
Ki (JAK1): 0.1 to 1 nM

CCc1cc(O)ccc1-c1ccc2c(-c3nc(C4=CCN(CCC5(O)CCC5)C4)c[nH]3)n[nH]c2c1F [Example 308]
JAK2 pKi (JAK2): A (A represents a pKi value ≥10 (Ki≤0.1 nM))
IC50 [1]: 10 to 31.6 nM
Ki (JAK1): 0.1 to 1 nM

CCc1cc(O)ccc1-c1ccc2c(-c3nc(C4=CCN(C(=O)OC)CC4)c[nH]3)n[nH]c2c1 [Example 149]
Ki (JAK2): 1 to 10 nM
IC50 [1]: 31.6 to 100 nM
Ki (JAK1): 1 to 10 nM

CCc1cc(O)ccc1-c1ccc2c(-c3nc(C4=CCCN(CCNC(C)=O)C4)c[nH]3)n[nH]c2c1 [Example 109]
Ki (JAK2): 0.1 to 1 nM
IC50 [1]: 10 to 31.6 nM
Ki (JAK1): 0.1 to 1 nM

CCc1cc(O)ccc1-c1ccc2c(-c3nc(C4=C[C@H](CC(=O)N5CCOCC5)NC4)c[nH]3)n[nH]c2c1F [Example 361]
JAK2 pKi (JAK2): A (A represents a pKi value ≥10 (Ki≤0.1 nM))
IC50 [1]: 31.6 to 100 nM
Ki (JAK1): 0.1 to 1 nM

CCc1cc(O)ccc1-c1ccc2c(-c3nc(C4=CCCN(CCCOC)C4)c[nH]3)n[nH]c2c1F [Example 67]
Ki (JAK2): 0.1 to 1 nM
IC50 [1]: 10 to 31.6 nM
Ki (JAK1): 0.1 to 1 nM

CCc1cc(O)ccc1-c1ccc2c(-c3nc(C4=CC[C@H](C)N(CCC(C)(C)O)C4)c[nH]3)n[nH]c2c1F [Example 260]
Ki (JAK2): 0.1 to 1 nM
IC50 [1]: 10 to 31.6 nM
Ki (JAK1): 0.1 to 1 nM

CCc1cc(O)ccc1-c1ccc2c(-c3nc(C4=CCN(CCCNC(C)=O)CC4)c[nH]3)n[nH]c2c1 [Example 104]
JAK2 pKi (JAK2): A (A represents a pKi value ≥10 (Ki≤0.1 nM))
IC50 [1]: 3.16 to 10 nM
JAK1 pKi (JAK1): A (A represents a pKi value ≥10 (Ki≤0.1 nM))

CCc1cc(O)ccc1-c1ccc2c(-c3nc(C4=CCCN(CCN5CCNC5=O)C4)c[nH]3)n[nH]c2c1 [Example 124]
JAK2 pKi (JAK2): A (A represents a pKi value ≥10 (Ki≤0.1 nM))
IC50 [1]: 3.16 to 10 nM
JAK1 pKi (JAK1): A (A represents a pKi value ≥10 (Ki≤0.1 nM))

CCc1cc(O)ccc1-c1ccc2c(-c3nc(C4=CCN(CCC5(O)CCC5)CC4)c[nH]3)n[nH]c2c1F [Example 334]
Ki (JAK2): 0.1 to 1 nM
IC50 [1]: 10 to 31.6 nM
Ki (JAK1): 0.1 to 1 nM

CCc1cc(O)ccc1-c1ccc2c(-c3nc(C4=C[C@H](CO)N(CCCOC)C4)c[nH]3)n[nH]c2c1F [Example 272]
JAK2 pKi (JAK2): A (A represents a pKi value ≥10 (Ki≤0.1 nM))
IC50 [1]: 3.16 to 10 nM
JAK1 pKi (JAK1): A (A represents a pKi value ≥10 (Ki≤0.1 nM))

CCc1cc(O)ccc1-c1ccc2c(-c3nc(C4=CCN(C(=O)CN5CCN(C)CC5)C4)c[nH]3)n[nH]c2c1F [Example 365]
JAK2 pKi (JAK2): A (A represents a pKi value ≥10 (Ki≤0.1 nM))
IC50 [1]: 31.6 to 100 nM
Ki (JAK1): 0.1 to 1 nM

CCc1cc(O)ccc1-c1ccc2c(-c3nc(C4=CCCN(CCC5(O)CC5)C4)c[nH]3)n[nH]c2c1F [Example 338]
Ki (JAK2): 0.1 to 1 nM
IC50 [1]: 10 to 31.6 nM
Ki (JAK1): 0.1 to 1 nM

CCc1cc(O)ccc1-c1ccc2c(-c3nc(C4=CC[C@H](C)N(C[C@H]5COCCN5)C4)c[nH]3)n[nH]c2c1F [Example 269]
Ki (JAK2): 0.1 to 1 nM
IC50 [1]: 31.6 to 100 nM
Ki (JAK1): 0.1 to 1 nM

CCc1cc(O)ccc1-c1ccc2c(-c3nc(C4=CCN[C@H](C)C4)c[nH]3)n[nH]c2c1F [Example 319]
Ki (JAK2): 0.1 to 1 nM
IC50 [1]: 10 to 31.6 nM
Ki (JAK1): 0.1 to 1 nM

CCc1cc(O)ccc1-c1ccc2c(-c3nc(C4=CCN(Cc5cn[nH]c5)C4)c[nH]3)n[nH]c2c1 [Example 296]
JAK2 pKi (JAK2): A (A represents a pKi value ≥10 (Ki≤0.1 nM))
IC50 [1]: 10 to 31.6 nM
JAK1 pKi (JAK1): A (A represents a pKi value ≥10 (Ki≤0.1 nM))

CCOC(=O)C1=C(c2c[nH]c(-c3n[nH]c4cc(-c5ccc(O)cc5CC)ccc34)n2)CCNC1 [Example 354]
Ki (JAK2): 0.1 to 1 nM
IC50 [1]: 31.6 to 100 nM
Ki (JAK1): 0.1 to 1 nM
